Reference: ChEMBL document CHEMBL4414655, “Position Effect of Fatty Acid Modification on the Cytotoxicity and Antimetastasis Potential of the Cytotoxic Peptide Lycosin-I” (J Med Chem, 2019)
Calls of active or inactive are those of the source. No cut-off for these calls is given here. Residues, ends and D or L forms follow the SMILES beside them. *: point of attachment. Lauroyl = CCCCCCCCCCCC(=O)*

Experiments:
A549 [1] = experiment: Inhibition of spheroids growth in human A549 cells 3D tumor spheroids at 10 to 20 uM treated on day 0 and measured on day 5 by CCK8 assay; format: functional, cell-based
A549 [2] = experiment: Induction of cell membrane disruption in human A549 cells assessed as LDH release at 3.25 uM incubated for 30 mins by fluorescence based assay relative to control
[3] = Stability in mouse serum at 100 uM incubated for 24 hrs at 37 degC by MALDI-TOF MS analysis; format: ADME, cell-free
A549 [4] = experiment: Induction of apoptosis in human A549 cells assessed as late apoptotic cells level at 2 uM incubated for 24 hrs by Annexin-V-FITC/PI staining based analysis (reference value: 2.27%); format: functional
U-87 MG = experiment: Cytotoxicity in human U87 cells assessed as reduction in cell viability incubated for 24 hrs by CCK8 assay; format: functional, cell-based, U-87MG ATCC
A549 [5] = experiment: Anti-invasion activity in human A549 cells at 0.5 to 1 uM incubated for 12 hrs by crystal violet staining based Matrigel coated transwell invasion assay; format: functional, cell-based
A549 [6] = experiment: Cytotoxicity in human A549 cells assessed as reduction in cell viability incubated for 24 hrs by CCK8 assay; format: functional, cell-based; details: A549, 24 h
L02 = experiment: Cytotoxicity in human L02 cells assessed as reduction in cell viability incubated for 24 hrs by CCK8 assay; format: cell-based; details: L02, 24 h
A549 [7] = experiment: Induction of apoptosis in human A549 cells assessed as necrotic cells level at 2 uM incubated for 24 hrs by Annexin-V-FITC/PI staining based analysis (reference value: 2.27%); format: functional
A549 [8] = experiment: Cytotoxicity in human A549 cells assessed as reduction in cell viability at 0.39 to 25 uM pre-incubated in presence of 10% FBS for 48 hrs and measured after 24 hrs by CCK8 assay; format: functional, cell-based
A549 [9] = experiment: Induction of cell membrane disruption in human A549 cells at 4 uM incubated for 1 hr by AO/EB staining based fluorescence microscopy
B16-F10 [10] = experiment: Anti-metastasis activity in mouse B16/F10 cells implanted in BALB/C mouse assessed as inhibition of lung metastatic nodules at 8 mg/kg, ip dosed every other day for 10 days and measured every 2 days by H and E staining based assay; format: functional, organism-based
A549 [11] = experiment: Induction of cell membrane disruption in human A549 cells at 4 uM incubated for 24 hrs by scanning electron microscopy; format: cell-based
A549 [12] = experiment: Induction of apoptosis in human A549 cells assessed as early apoptotic cells level at 2 uM incubated for 24 hrs by Annexin-V-FITC/PI staining based analysis (reference value: 2.27%); format: functional
A549 [13] = experiment: Anti-migration activity in human A549 cells at 0.5 to 1 uM incubated for 12 hrs by crystal violet staining based transwell migration assay; format: functional, cell-based
MCF7 = experiment: Cytotoxicity in human MCF7 cells assessed as reduction in cell viability incubated for 24 hrs by CCK8 assay; format: functional, cell-based; details: MCF7, 24 h
A549 [14] = experiment: Induction of cell membrane disruption in human A549 cells assessed as LDH release at 25 uM incubated for 30 mins by fluorescence based assay relative to control
A549 [15] = experiment: Inhibition of colony formation n human A549 cells up to 10 uM incubated for 15 days by crystal violet staining based assay; format: functional, cell-based
HeLa = experiment: Cytotoxicity in human HeLa cells assessed as reduction in cell viability incubated for 24 hrs by CCK8 assay; format: functional, cell-based
[16] = Toxicity in mouse B16/F10 cells implanted BALB/C mouse assessed as effect on body weight at 10 mg/kg, ip dosed every other day for 10 days and measured every 5 days; format: organism-based; details: in vivo
PC-3 = experiment: Cytotoxicity in human PC3 cells assessed as reduction in cell viability incubated for 24 hrs by CCK8 assay; format: functional, cell-based; details: PC-3, 24 h
B16-F10 [17] = experiment: Antitumor activity in mouse B16/F10 cells implanted in BALB/C mouse assessed as inhibition of tumor growth at 10 mg/kg, ip dosed every other day for 10 days and measured every 2 days; format: functional, organism-based
HEK-293T = experiment: Cytotoxicity in human HEK293T cells assessed as reduction in cell viability incubated for 24 hrs by CCK8 assay; format: cell-based; details: Homo sapiens, HEK-293T
SW-620 = experiment: Cytotoxicity in human SW620 cells assessed as reduction in cell viability incubated for 24 hrs by CCK8 assay; format: functional, cell-based; details: SW-620, 24 h
A549 [18] = experiment: Anti-migration activity in human A549 cells 3D tumor spheroids assessed as reduction in cell migration at 20 uM incubated for 48 hrs by gelatin based 3D spheroid based metastasis assay; format: functional
A549 [19] = experiment: Cytotoxicity in human A549 cells assessed as reduction in cell viability at 1.56 to 12.5 uM at 37 degC incubated for 24 hrs by CCK8 assay; format: functional, cell-based
A549 [20] = experiment: Induction of apoptosis in human A549 cells assessed as induction of caspase-3 activation at 2 uM incubated for 24 hrs using Ac-DEVD-pNA substrate; format: functional, cell-based
A549 [21] = experiment: Cytotoxicity in human A549 cells 3D tumor spheroids assessed as reduction in cell viability at 5 to 10 uM treated on day 0 and measured on day 5 by CCK8 assay; format: functional, cell-based
A549 [22] = experiment: Cytotoxicity in human A549 cells assessed as reduction in cell viability by trypan blue staining method; format: functional, cell-based
A549 [23] = experiment: Inhibition of colony formation n human A549 cells incubated for 15 days by crystal violet staining based assay; format: functional, cell-based
A549 [24] = experiment: Cytotoxicity in human A549 cells assessed as reduction in cell viability at 1 uM incubated for 24 hrs by CCK8 assay; format: functional, cell-based
[25] = Toxicity in mouse B16/F10 cells implanted BALB/C mouse assessed as effect on body weight at 8 mg/kg, ip dosed every other day for 10 days and measured every 5 days; format: organism-based; details: in vivo
B16-F10 [26] = experiment: Anti-metastasis activity in mouse B16/F10 cells implanted in BALB/C mouse assessed as reduction in lung metastatic nodules at 8 mg/kg, ip dosed every other day for 10 days and measured every 2 days by H and E staining based assay; format: functional, organism-based
A549 [27] = experiment: Induction of cell membrane disruption in human A549 cells assessed as LDH release at 3.1 uM incubated for 30 mins by fluorescence based assay relative to control
Homo sapiens = species: Homo sapiens; experiment: Induction of cell membrane disruption in human erythrocytes cells assessed as induction of hemolysis at 0.098 to 50 uM incubated for 1 hr by fluorescence based assay relative to control; format: cell membranes
A549 [28] = experiment: Cytotoxicity in human A549 cells assessed as reduction in cell viability at 1.56 to 12.5 uM at 4 degC incubated for 24 hrs by CCK8 assay; format: functional, cell-based
A549 [29] = experiment: Anti-migration activity in human A549 cells 3D tumor spheroids assessed as reduction in cell migration at 2.5 to 10 uM incubated for 48 hrs by gelatin based 3D spheroid based metastasis assay; format: functional
A549 [30] = experiment: Inhibition of spheroids growth in human A549 cells 3D tumor spheroids assessed as induction of physical shrinking and peripheral collapse at 10 uM treated on day 0 and measured on day 5; format: functional, cell-based
A549 [31] = experiment: Inhibition of spheroids growth in human A549 cells 3D tumor spheroids at 5 uM treated on day 0 and measured on day 5 by CCK8 assay; format: functional, cell-based
B16-F10 [32] = experiment: Cytotoxicity in mouse B16/F10 cells assessed as reduction in cell viability incubated for 24 hrs by CCK8 assay; format: functional, cell-based; details: B16-F10, 24 h
A549 [33] = experiment: Potency index, ratio of IC50 for lycosin-I to IC50 for test compound for cytotoxicity in human A549 cells assessed as reduction in cell viability at 0.78 to 50 uM incubated for 24 hrs by CCK8 assay; format: functional
A549 [34] = experiment: Induction of cell membrane disruption in human A549 cells assessed as shrunken morphology with membrane lysis at 4 uM incubated for 24 hrs by scanning electron microscopy; format: cell-based
A549 [35] = experiment: Anti-migration activity in human A549 cells incubated for 12 hrs by crystal violet staining based transwell migration assay; format: functional, cell-based

Question: Which “growth inhibition (GI)” value (A549 [1]) does the source give for H-KGWFKAMKSIAKFIAKEKLKEHL-OH here?
Answer: inactive

Question: What about the Activity (A549 [2]) of the same compound?
Answer: 5.1%

Question: And the Stability [3]?
Answer: Unstable

Question: And the Activity (A549 [4])?
Answer: 3.37%

Question: What about the IC50 (U-87 MG) of the same compound?
Answer: 19.9 µM

Question: And the Activity (A549 [5])?
Answer: inactive

Question: What about the IC50 (A549 [6]) of the same compound?
Answer: 22.9 µM

Question: And the IC50 (L02)?
Answer: 42.1 µM

Question: And the Activity (A549 [7])?
Answer: 1.97%

Question: What about the Activity (A549 [8]) of the same compound?
Answer: inactive

Question: What about the Activity (A549 [9]) of the same compound?
Answer: inactive

Question: What about the inhibition (B16-F10 [10]) of the same compound?
Answer: inactive

Question: And the Activity (A549 [11])?
Answer: inactive

Question: What about the Activity (A549 [12]) of the same compound?
Answer: 0.48%

Question: What about the Activity (A549 [13]) of the same compound?
Answer: inactive

Question: What about the IC50 (MCF7) of the same compound?
Answer: 20.1 µM

Question: What about the Activity (A549 [14]) of the same compound?
Answer: 37%

Question: And the inhibition (A549 [15])?
Answer: inactive

Question: And the IC50 (HeLa)?
Answer: 26.3 µM

Question: And the Activity [16]?
Answer: Non-Toxic

Question: What about the IC50 (PC-3) of the same compound?
Answer: 11 µM

Question: What about the TGI (B16-F10 [17]) of the same compound?
Answer: inactive

Question: What about the IC50 (HEK-293T) of the same compound?
Answer: 27.9 µM

Question: And the IC50 (SW-620)?
Answer: 13.7 µM

Question: What about the Activity (A549 [18]) of the same compound?
Answer: Active

Question: Which Activity (A549 [2]) does the source give for `CCCCCCCCCCCC(=O)N[C@@H](CCCCN)C(=O)NCC(=O)N[C@@H](Cc1c[nH]c2ccccc12)C(=O)N[C@@H](Cc1ccccc1)C(=O)N[C@@H](CCCCN)C(=O)N[C@@H](C)C(=O)N[C@@H](CCSC)C(=O)N[C@@H](CCCCN)C(=O)N[C@@H](CO)C(=O)N[C@H](C(=O)N[C@@H](C)C(=O)N[C@@H](CCCCN)C(=O)N[C@@H](Cc1ccccc1)C(=O)N[C@H](C(=O)N[C@@H](C)C(=O)N[C@@H](CCCCN)C(=O)N[C@@H](CCC(=O)O)C(=O)N[C@@H](CCCCN)C(=O)N[C@@H](CC(C)C)C(=O)N[C@@H](CCCCN)C(=O)N[C@@H](CCC(=O)O)C(=O)N[C@@H](Cc1cnc[nH]1)C(=O)N[C@@H](CC(C)C)C(=O)O)[C@@H](C)CC)[C@@H](C)CC` (Lauroyl-KGWFKAMKSIAKFIAKEKLKEHL-OH) here?
Answer: 59.4%

Question: What about the Stability [3] of the same compound?
Answer: Stable

Question: And the Activity (A549 [4])?
Answer: 10.88%

Question: What about the Activity (A549 [19]) of the same compound?
Answer: Active

Question: What about the Activity (A549 [20]) of the same compound?
Answer: Active

Question: What about the IC50 (U-87 MG) of the same compound?
Answer: 1.9 µM

Question: What about the Activity (A549 [5]) of the same compound?
Answer: Dose-dependent effect

Question: And the “growth inhibition (GI)” value (A549 [21])?
Answer: Active

Question: And the Activity (A549 [22])?
Answer: Active

Question: What about the inhibition (A549 [23]) of the same compound?
Answer: Dose-dependent effect

Question: And the Activity (A549 [24])?
Answer: inactive

Question: And the Activity [25]?
Answer: Non-Toxic

Question: What about the IC50 (A549 [6]) of the same compound?
Answer: 2.2 to 2.6 µM

Question: And the IC50 (L02)?
Answer: 3.9 µM

Question: What about the Activity (A549 [7]) of the same compound?
Answer: 31.84%

Question: What about the Activity (A549 [8]) of the same compound?
Answer: Active

Question: And the inhibition (B16-F10 [26])?
Answer: Active

Question: And the Activity (A549 [9])?
Answer: Active

Question: And the Activity (A549 [27])?
Answer: 55%

Question: And the Activity (Homo sapiens)?
Answer: Active

Question: And the inhibition (B16-F10 [10])?
Answer: Active

Question: And the Activity (A549 [11])?
Answer: Active

Question: And the Activity (A549 [12])?
Answer: 0.91%

Question: What about the Activity (A549 [28]) of the same compound?
Answer: inactive

Question: What about the Activity (A549 [29]) of the same compound?
Answer: Active

Question: What about the IC50 (MCF7) of the same compound?
Answer: 1.7 µM

Question: What about the “growth inhibition (GI)” value (A549 [30]) of the same compound?
Answer: Active

Question: What about the IC50 (HeLa) of the same compound?
Answer: 2.8 µM

Question: What about the Activity [16] of the same compound?
Answer: Non-Toxic

Question: What about the “growth inhibition (GI)” value (A549 [31]) of the same compound?
Answer: Active

Question: What about the IC50 (B16-F10 [32]) of the same compound?
Answer: 2000 nM

Question: What about the IC50 (PC-3) of the same compound?
Answer: 2.2 µM

Question: And the “Ratio IC50” value (A549 [33])?
Answer: 4 - 15

Question: And the TGI (B16-F10 [17])?
Answer: Active

Question: What about the IC50 (HEK-293T) of the same compound?
Answer: 2.2 µM

Question: And the Activity (A549 [34])?
Answer: Active

Question: What about the IC50 (SW-620) of the same compound?
Answer: 2 µM

Question: And the Activity (A549 [35])?
Answer: Dose-dependent effect
